Measurements: the CheMixHub viscosity set
Where “and” joins values, the source holds several entries; their conditions need not be identical. Equal values may be shown once. ± gives the uncertainty stated by the source.

Tests used:
[1] = xn = mol fraction of the nth substance listed; conditions: 101 kPa

C1COCOC1
101 kPa
Conditions | viscosity [mPa·s]
298.15 K | 1.057 ± 0.028
313.15 K | 0.8452 ± 0.022

C=COC(C)=O
Conditions | viscosity [mPa·s]
303.15 K, 101.33 kPa | 0.372 ± 0.003

CC(C)C(C)O (stereo unspecified)
101.33 kPa
Conditions | viscosity [mPa·s]
303.15 K | 3.163 ± 0.037
313.15 K | 2.185 ± 0.026
323.15 K | 1.573 ± 0.019

CC(C)c1ccccc1
viscosity
Conditions | 293.15 K | 298.15 K | 303.15 K | 308.15 K | 313.15 K | 318.15 K | 323.15 K
100 kPa | – | 0.772 ± 0.008 mPa·s | – | 0.692 ± 0.007 mPa·s | – | 0.623 ± 0.006 mPa·s | –
101 kPa | 0.779 ± 0.013 mPa·s | 0.7314 ± 0.019 mPa·s and 0.731 ± 0.019 mPa·s | 0.68 ± 0.01 mPa·s and 0.6881 ± 0.0057 mPa·s | 0.6366 ± 0.017 mPa·s and 0.636 ± 0.016 mPa·s and 0.6488 ± 0.0054 mPa·s | 0.608 ± 0.011 mPa·s and 0.607 ± 0.011 mPa·s and 0.6116 ± 0.0051 mPa·s | 0.5767 ± 0.0049 mPa·s | 0.5447 ± 0.0046 mPa·s

CCC(CC)CO
Conditions | viscosity
298.15 K, 101.33 kPa | 5.819 ± 0.053 mPa·s and 5.819 ± 0.05 mPa·s

CCCCCCCC(=O)O
Conditions | viscosity [mPa·s]
298.15 K, 101 kPa | 5.16 ± 0.13

CCCCCCCCCCCCCCCCCCCC
Conditions | viscosity [mPa·s]
313.2 K, 101.3 kPa | 4.01 ± 0.045

CCCCOC(C)=O
viscosity
Conditions | 293.15 K | 298.15 K | 308.15 K | 313.15 K | 318.15 K | 323.15 K
100 kPa | 0.73 ± 0.09 mPa·s | 0.683 ± 0.082 mPa·s | – | 0.55 ± 0.07 mPa·s | 0.51 ± 0.06 mPa·s | 0.465 ± 0.056 mPa·s
101 kPa | 0.724 ± 0.0075 mPa·s and 0.724 ± 0.007 mPa·s | – | – | – | 0.524 ± 0.011 mPa·s and 0.5262 ± 0.0061 mPa·s | 0.507 ± 0.007 mPa·s
101.33 kPa | 0.735 ± 0.025 mPa·s | – | 0.592 ± 0.008 mPa·s and 0.593 ± 0.016 mPa·s and 0.584 ± 0.004 mPa·s | 0.557 ± 0.008 mPa·s and 0.565 ± 0.02 mPa·s | 0.524 ± 0.008 mPa·s | –

CCCN
Conditions | viscosity
293.15 K, 101.3 kPa | 0.359 ± 0.01 mPa·s
298.15 K, 100 kPa | 0.365 ± 0.0042 mPa·s
298.15 K, 101.3 kPa | 0.342 ± 0.01 mPa·s
298.15 K, 101.33 kPa | 0.356 ± 0.004 mPa·s
303.15 K, 101 kPa | 0.3468 ± 0.005 mPa·s and 0.3479 ± 0.005 mPa·s
303.15 K, 101.33 kPa | 0.3479 ± 0.005 mPa·s and 0.3512 ± 0.0032 mPa·s
308.15 K, 101 kPa | 0.2998 ± 0.011 mPa·s
308.15 K, 101.33 kPa | 0.328 ± 0.004 mPa·s
313.15 K, 101.33 kPa | 0.3123 ± 0.003 mPa·s
318.15 K, 101.33 kPa | 0.291 ± 0.003 mPa·s

CCCN(CCC)C(C)=O
Conditions | viscosity [mPa·s]
298.16 K, 101 kPa | 2.204 ± 0.02

CCCOC(=O)c1ccccc1
viscosity [mPa·s]
Conditions | 293.15 K | 298.15 K | 303.15 K | 308.15 K | 313.15 K | 318.15 K | 323.15 K
101 kPa | – | 2.357 ± 0.075 | – | 1.905 ± 0.061 | – | 1.574 ± 0.05 | –
101.33 kPa | 2.586 ± 0.015 | – | 2.013 ± 0.012 | – | 1.604 ± 0.01 | – | 1.301 ± 0.008

CN1CCCN(C)C1=O
viscosity [mPa·s]
Conditions | 293.15 K | 298.15 K | 303.15 K | 308.15 K | 313.15 K | 318.15 K | 323.15 K
100 kPa | 3.514 ± 0.14 | 3.11 ± 0.13 | 2.779 ± 0.11 | 2.501 ± 0.1 | 2.266 ± 0.093 | 2.064 ± 0.085 | 1.891 ± 0.077
101 kPa | – | 2.95 ± 0.02 | – | – | – | – | –

C[n+]1ccn(CCO)c1.O=C([O-])C(F)(F)C(F)(F)C(F)(F)C(F)(F)F
101 kPa
Conditions | viscosity [mPa·s]
298.15 K | 712.8 ± 38
308.15 K | 351.3 ± 17
318.15 K | 190.8 ± 8.5

Clc1ccccc1Cl
viscosity
Conditions | 298.15 K | 303.15 K | 308.15 K | 313.15 K | 318.15 K
100 kPa | – | 1.238 ± 0.01 mPa·s | 1.146 ± 0.01 mPa·s | 1.054 ± 0.009 mPa·s | 0.974 ± 0.009 mPa·s
101 kPa | 1.22 ± 0.011 mPa·s | 1.129 ± 0.01 mPa·s and 1.22 ± 0.015 mPa·s | 1.058 ± 0.0098 mPa·s and 1.148 ± 0.013 mPa·s | 0.9857 ± 0.0094 mPa·s and 1.054 ± 0.21 mPa·s | 0.974 ± 0.19 mPa·s

N#CCCl
101 kPa
Conditions | viscosity [mPa·s]
293.15 K | 0.938 ± 0.025
298.15 K | 0.863 ± 0.023
303.15 K | 0.798 ± 0.021
313.15 K | 0.714 ± 0.019
323.15 K | 0.616 ± 0.016

OCCc1ccccc1
viscosity
Conditions | 298.15 K | 303.15 K | 308.15 K | 313.15 K
100 kPa | – | 9.05 ± 0.25 mPa·s and 9.027 ± 0.54 mPa·s | 7.653 ± 0.46 mPa·s | 6.335 ± 0.38 mPa·s
101 kPa | 10.9 ± 0.09 mPa·s | – | – | –

Oc1ccccc1Cl
Conditions | viscosity
293.15 K, 101 kPa | 4.21 ± 0.05 mPa·s
298 K, 101 kPa | 3.376 ± 0.086 mPa·s
298 K, 101.3 kPa | 3.376 ± 0.029 mPa·s
298 K, 101.33 kPa | 3.36 ± 0.067 mPa·s
298.15 K, 101 kPa | 3.671 ± 0.13 mPa·s and 3.381 ± 0.039 mPa·s
303 K, 101 kPa | 2.927 ± 0.075 mPa·s
303 K, 101.3 kPa | 2.927 ± 0.027 mPa·s
303.15 K, 101 kPa | 3.08 ± 0.03 mPa·s and 2.821 ± 0.063 mPa·s and 2.998 ± 0.045 mPa·s
308 K, 101 kPa | 2.532 ± 0.065 mPa·s
308 K, 101.3 kPa | 2.532 ± 0.024 mPa·s
308.15 K, 101 kPa | 2.491 ± 0.056 mPa·s and 2.358 ± 0.029 mPa·s
313 K, 101 kPa | 2.191 ± 0.056 mPa·s
313 K, 101.3 kPa | 2.191 ± 0.021 mPa·s
313.15 K, 101 kPa | 2.32 ± 0.02 mPa·s and 2.32 ± 0.023 mPa·s and 2.259 ± 0.052 mPa·s
318 K, 101 kPa | 1.947 ± 0.05 mPa·s
318 K, 101.3 kPa | 1.947 ± 0.019 mPa·s
318.15 K, 101 kPa | 2.038 ± 0.047 mPa·s
323.1 K, 101 kPa | 2.015 ± 0.069 mPa·s
323.15 K, 101 kPa | 1.871 ± 0.019 mPa·s

CCCN + c1ccccc1
viscosity [mPa·s], [1]
Conditions | x1 = 0.007866 | x1 = 0.01864 | x1 = 0.02795 | x1 = 0.03664 | x1 = 0.04697 | x1 = 0.0579 | x1 = 0.06586 | x1 = 0.07593 | x1 = 0.08436
303.15 K | 0.5618 ± 0.0043 | 0.5605 ± 0.0043 | 0.5588 ± 0.0043 | 0.5574 ± 0.0043 | 0.5554 ± 0.0043 | 0.5534 ± 0.0043 | 0.552 ± 0.0042 | 0.5501 ± 0.0042 | 0.548 ± 0.0042
313.15 K | 0.4898 ± 0.0039 | 0.4864 ± 0.0039 | 0.4837 ± 0.0039 | 0.4817 ± 0.0039 | 0.4766 ± 0.0039 | 0.4725 ± 0.0039 | 0.4704 ± 0.0039 | 0.467 ± 0.0038 | 0.4636 ± 0.0038

Oc1ccccc1Cl + c1ccncc1
viscosity [mPa·s], [1]
Conditions | 293.15 K | 303.15 K | 313.15 K
x1 = 0.07182 | 1.158 ± 0.011 | 0.994 ± 0.01 | 0.863 ± 0.009
x1 = 0.1451 | 1.459 ± 0.014 | 1.249 ± 0.012 | 1.073 ± 0.01
x1 = 0.2211 | 1.903 ± 0.019 | 1.588 ± 0.015 | 1.351 ± 0.013
x1 = 0.311 | 2.62 ± 0.026 | 2.152 ± 0.021 | 1.773 ± 0.017
x1 = 0.395 | 3.69 ± 0.04 | 2.96 ± 0.03 | 2.31 ± 0.023
x1 = 0.4815 | 5.28 ± 0.06 | 3.92 ± 0.04 | 2.98 ± 0.029
x1 = 0.5607 | 6.82 ± 0.08 | 4.72 ± 0.05 | 3.53 ± 0.04
x1 = 0.6186 | 7.8 ± 0.1 | 5.22 ± 0.06 | 3.78 ± 0.04
x1 = 0.6723 | 8.23 ± 0.11 | 5.4 ± 0.06 | 3.84 ± 0.04
x1 = 0.7248 | 8.16 ± 0.11 | 5.36 ± 0.06 | 3.78 ± 0.04
x1 = 0.7794 | 7.58 ± 0.1 | 5.04 ± 0.06 | 3.55 ± 0.04
x1 = 0.8837 | 5.97 ± 0.08 | 4.11 ± 0.05 | 2.94 ± 0.03
